For one data set, the target named is Coagulation factor X (Homo sapiens, UniProt P00742).
A short description of data set [1]: Inhibition of Plasmin. Set-up: species or system Homo sapiens.
For data set [2], the target named is Urokinase-type plasminogen activator (Homo sapiens, UniProt P00749). As to the kind of experiment: Inhibition of uPA.
The next data set concerns the target Trypsin (Homo sapiens, UniProt P07477+P07478+P35030). As to the kind of experiment: Inhibition of trypsin. In kind it is protein assay.
The target in a further data set is Prothrombin (Homo sapiens, UniProt P00734). Kind of data set: Inhibition of thrombin.
Data set [3] concerns Plasma. Kind of data set: Anticoagulant activity in human plasma by TT assay. It counts as functional.
The nature of data set [4]: Anticoagulant activity in human plasma by aPTT assay. It counts as functional.
The subject of data set [5] is Plasma. Kind of data set: Anticoagulant activity in human plasma by PT assay. In kind it is functional.
Data set [6] can be described thus: Permeability across Caco-2 cell membrane. It counts as ADME, cell-based. The settings on record: human. Background: Caco-2 cells form a polarised layer with tight junctions and transporters.

Bounds are passed on as bounds.

Coagulation factor X, sequence (P00742 41-179 limits assumed): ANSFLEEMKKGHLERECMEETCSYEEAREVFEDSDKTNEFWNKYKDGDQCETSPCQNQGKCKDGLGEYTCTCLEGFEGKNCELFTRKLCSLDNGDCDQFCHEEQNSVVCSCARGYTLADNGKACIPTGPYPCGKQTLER
Coagulation factor X, sequence (P00742 235-488 limits assumed): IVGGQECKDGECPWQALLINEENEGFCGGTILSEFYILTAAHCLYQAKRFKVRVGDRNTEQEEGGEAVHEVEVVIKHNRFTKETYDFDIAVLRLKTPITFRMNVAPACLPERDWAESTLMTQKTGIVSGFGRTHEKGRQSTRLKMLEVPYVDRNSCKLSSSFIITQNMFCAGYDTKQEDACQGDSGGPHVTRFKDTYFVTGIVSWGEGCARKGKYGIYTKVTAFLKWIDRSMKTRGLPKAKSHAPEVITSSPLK

For orientation: Ki means a dissociation constant, usually derived from enzyme kinetics or from competition with a known ligand. A lower Ki goes with higher affinity. Turning to `COC(=O)C(=O)NC(CCc1cccc[n+]1[O-])C(=O)N1CCC[C@H]1C(=O)NCc1cc(Cl)ccc1CN` (stereo not given in full), the Ki is 0.87 nM on Coagulation factor X; greater than 5 µM in data set [1]; greater than 5 µM in data set [2]; greater than 0.5 µM at Trypsin; 0.019 µM at Prothrombin.
With `CCOC(=O)CN[C@H](CCc1cccc[n+]1[O-])C(=O)N1CCC[C@H]1C(=O)NCc1cc(Cl)ccc1CN`, the IC200 in the data set with Plasma [3] came out at 0.1 µM; in data set [4], 0.18 µM. For the same compound, the Ki at Coagulation factor X was 1.7 nM; in data set [1], greater than 5 µM; in data set [2], greater than 5 µM; at Trypsin, greater than 0.5 µM.
Take `CCCCCCOC(=O)CN[C@H](CCc1cccc[n+]1[O-])C(=O)N1CCC[C@H]1C(=O)NCc1cc(Cl)ccc1CN`: the Ki in data set [1] is greater than 5 µM; in data set [2], greater than 5 µM; at Trypsin, greater than 0.5 µM; on Prothrombin it was 0.0078 µM.
Regarding `NCc1ccc(Cl)cc1CNC(=O)[C@H](CCC(=O)O)NC(=O)C(CCc1cccc[n+]1[O-])NS(=O)(=O)Cc1ccccc1` (stereo not given in full), the Ki in [1] is greater than 5 µM; in [2] it was greater than 5 µM; on Trypsin it was greater than 0.5 µM; at Prothrombin, 20 µM.
For `C[C@H](NC(=O)[C@@H](CCc1cccc[n+]1[O-])NS(=O)(=O)Cc1ccccc1)C(=O)NCc1cc(Cl)ccc1CN`, the Ki in data set [1] is greater than 5 µM; in data set [2], greater than 5 µM; at Trypsin, greater than 0.5 µM; on Prothrombin, 0.17 µM.
For `NCc1ccc(Cl)cc1CNC(=O)[C@H](CO)NC(=O)C(CCc1ccccn1)NS(=O)(=O)Cc1ccccc1` (stereo not given in full), the Ki in data set [1] is greater than 5 µM; in data set [2] it was greater than 5 µM; at Trypsin it was greater than 0.5 µM; at Prothrombin, 0.25 µM.
Regarding `NCc1ccc(Cl)cc1CNC(=O)[C@@H]1CCCN1C(=O)[C@@H](CCc1cccc[n+]1[O-])NCC(=O)OC1CCCCC1`, the Ki in [1] was greater than 5 µM; in data set [2], greater than 5 µM; at Trypsin it was greater than 0.5 µM; on Prothrombin, 0.009 µM.
As for `CCOC(=O)CC(=O)NC(CCc1cccc[n+]1[O-])C(=O)NCC(=O)NCc1cc(Cl)ccc1CN` (stereo not given), the Ki at Coagulation factor X is 200 nM; in data set [1], greater than 5 µM; in [2], greater than 5 µM; on Trypsin it was greater than 0.5 µM; on Prothrombin, 40 µM.
Consider `NCc1ccc(Cl)cc1CNC(=O)CNC(=O)C(CCc1cccc[n+]1[O-])NC(=O)CC(=O)O` (stereo not given), for which the Ki was greater than 5 µM in [1], greater than 5 µM in data set [2], greater than 0.5 µM on Trypsin and 140 µM at Prothrombin.
Turning to `C[C@H](NC(=O)[C@@H](CCc1ccccn1)NS(=O)(=O)Cc1ccccc1)C(=O)NCc1cc(Cl)ccc1CN`, the Ki was 0.084 nM at Coagulation factor X; greater than 5 µM in data set [1]; greater than 5 µM in [2]; greater than 0.5 µM at Trypsin; 0.024 µM at Prothrombin.
Turning to `Nc1ccc(CNC(=O)CNC(=O)C(CCc2cccc[n+]2[O-])NS(=O)(=O)Cc2ccccc2)cn1` (stereo not given), the Ki on Coagulation factor X is 21 nM; in data set [1], greater than 5 µM; in data set [2], greater than 5 µM; at Trypsin, greater than 0.5 µM; at Prothrombin, 88 µM.
For `O=C(CNC(=O)[C@@H](CCc1cccc[n+]1[O-])NS(=O)(=O)Cc1ccccc1)NCCc1ccncc1`, the Ki is 3900 nM at Coagulation factor X; greater than 5 µM in data set [1]; greater than 5 µM in data set [2]; greater than 0.5 µM on Trypsin; greater than 1000 µM at Prothrombin.
As for `O=C(CNC(=O)[C@@H](CCc1cccc[n+]1[O-])NS(=O)(=O)Cc1ccccc1)NCc1cccc(Cl)c1`, the Ki on Coagulation factor X is 3.3 nM; in [1], greater than 5 µM; in [2] it was greater than 5 µM; at Trypsin it was greater than 0.5 µM; at Prothrombin, 10 µM.
Regarding `NCc1ccccc1CNC(=O)CNC(=O)C(CCc1cccc[n+]1[O-])NS(=O)(=O)Cc1ccccc1` (stereo not given), the Ki is 32 nM at Coagulation factor X; greater than 5 µM in [1]; greater than 5 µM in data set [2]; greater than 0.5 µM on Trypsin; 40 µM at Prothrombin.
Consider `O=C(CNC(=O)C(CCc1cccc[n+]1[O-])NS(=O)(=O)Cc1ccccc1)NCc1ccc(Cl)s1` (stereo not given), for which the Ki on Coagulation factor X was 53 nM; in [1], greater than 5 µM; in [2], greater than 5 µM; on Trypsin it was greater than 0.5 µM; on Prothrombin it was 190 µM.
For the compound `O=C(CNC(=O)C(CCc1cccc[n+]1[O-])NS(=O)(=O)Cc1ccccc1)NCc1cccs1` (stereo not given), the Ki at Coagulation factor X was 52 nM; in data set [1], greater than 5 µM; in data set [2], greater than 5 µM; on Trypsin, greater than 0.5 µM; at Prothrombin, 140 µM.
As for `CCCS(=O)(=O)NC(CCc1cccc[n+]1[O-])C(=O)NCC(=O)NCc1cc(Cl)ccc1CN` (stereo not given), the IC200 came out at 6.5 µM in the data set on Plasma [3] and 0.45 µM in [4]. For the same compound, the Ki was greater than 5 µM in data set [1], greater than 5 µM in [2], greater than 0.5 µM at Trypsin and 2.7 µM on Prothrombin.
Turning to `CC(C)OC(=O)CS(=O)(=O)NC(CCc1cccc[n+]1[O-])C(=O)NCC(=O)NCc1cc(Cl)ccc1CN` (stereo not given), the Ki at Coagulation factor X was 0.76 nM; in [1], greater than 5 µM; in data set [2] it was greater than 5 µM; on Trypsin, greater than 0.5 µM; on Prothrombin, 0.53 µM.
With `NCc1ccc(Cl)cc1CNC(=O)CNC(=O)C(CCc1cccc[n+]1[O-])NS(=O)(=O)CC(=O)O` (stereo not given), the results for the IC200 (with Plasma [3]; in data set [4]) were 57 µM and 0.89 µM, respectively. Besides, the Ki in [1] was greater than 5 µM; in data set [2], greater than 5 µM; on Trypsin, greater than 0.5 µM; at Prothrombin, 8.3 µM.
With `NCc1ccc(Cl)cc1CNC(=O)CNC(=O)C(CCc1cccc[n+]1[O-])NS(=O)(=O)Cc1ccc(CC(=O)O)cc1` (stereo not given), the IC200 was determined as 1.2 µM in the data set with Plasma [3], 0.49 µM in [4] and 0.29 µM in the data set with Plasma [5]. For the same compound, the Ki in data set [1] was greater than 5 µM; in data set [2], greater than 5 µM; on Trypsin it was greater than 0.5 µM; on Prothrombin it was 0.93 µM.
Take `NCc1ccc(Cl)cc1CNC(=O)[C@@H]1CCCN1C(=O)[C@@H](CCc1cccc[n+]1[O-])NS(=O)(=O)CC(=O)O`: the figures for the IC200 (with Plasma [3]; in data set [4]) were 0.11 µM and 0.15 µM, respectively. Moreover, the Ki is greater than 5 µM in [1], greater than 5 µM in data set [2], 0.061 µM on Trypsin and 0.0077 µM on Prothrombin.
For the compound `NCc1ccc(Cl)cc1CNC(=O)[C@@H]1CCCN1C(=O)[C@@H](CCc1cccc[n+]1[O-])NCC(=O)O`, the IC200 amounted to 0.17 µM in the data set with Plasma [3] and 0.32 µM in [4]. In addition, the Ki was 0.94 nM on Coagulation factor X; greater than 5 µM in data set [1]; greater than 5 µM in [2]; greater than 0.5 µM on Trypsin; 0.0173 µM on Prothrombin.
In general, Papp refers to a coefficient for how fast a substance crosses the barrier. Lower therefore signals poor permeation. As to `NCc1ccc(Cl)cc1CNC(=O)[C@@H]1CCCN1C(=O)[C@@H](CCc1ccccn1)NCC(=O)O`, the IC200 in the data set on Plasma [3] is 0.03 µM; in data set [4], 0.16 µM; in the data set on Plasma [5], 0.35 µM. Also, the Ki is greater than 5 µM in data set [1], greater than 5 µM in [2] and greater than 0.5 µM at Trypsin. The compound also came in with a Papp in data set [6] of 5 ×10⁻⁶ cm/s.
In the case of `N=C(N)c1ccc(CNC(=O)CNC(=O)[C@@H](CCc2cccc[n+]2[O-])NS(=O)(=O)Cc2ccccc2)cc1`, the Ki at Coagulation factor X was 0.32 nM; on Trypsin, 0.0063 µM; at Prothrombin, 2.7 µM.
Take `COC(=O)C(=O)NC(CCc1cccc[n+]1[O-])C(=O)NCC(=O)NCc1cc(Cl)ccc1CN` (stereo not given): the Ki was 4.9 nM on Coagulation factor X; greater than 5 µM in data set [1]; greater than 5 µM in data set [2]; greater than 0.5 µM on Trypsin; 6.5 µM at Prothrombin.
In the case of `NCc1ccc(Cl)cc1CNC(=O)[C@@H]1CCCN1C(=O)[C@@H](CCc1ccc(O)cc1)NCC(=O)O`, the IC200 in the data set with Plasma [3] worked out at 0.15 µM; in data set [4] it was 0.47 µM; in the data set with Plasma [5] it was 0.73 µM. The Ki in data set [1] was greater than 5 µM; in data set [2] it was greater than 5 µM; at Trypsin, greater than 0.5 µM; on Prothrombin, 0.0032 µM.
On to `NCc1ccc(Cl)cc1CNC(=O)[C@H](CO)NC(=O)[C@@H](CCc1cccc[n+]1[O-])NS(=O)(=O)Cc1ccccc1`, for which the Ki was greater than 5 µM in data set [1], greater than 5 µM in data set [2] and greater than 0.5 µM at Trypsin.
Turning to `NCc1ccc(Cl)cc1CNC(=O)[C@@H]1CCCN1C(=O)[C@@H](CCc1cccc[n+]1[O-])NS(=O)(=O)Cc1ccccc1`, the Ki is greater than 5 µM in [1], greater than 5 µM in data set [2], 0.019 µM on Trypsin and 0.00056 µM at Prothrombin.
For the compound `NCc1ccc(Cl)cc1CNC(=O)CNC(=O)C(CCc1cccc[n+]1[O-])NCC(=O)O` (stereo not given), the IC200 is greater than 100 µM in the data set with Plasma [3], 6 µM in data set [4] and 3.3 µM with Plasma [5]. The Ki in [1] was greater than 5 µM; in data set [2], greater than 5 µM; at Trypsin it was greater than 0.5 µM; on Prothrombin, 125 µM.
Regarding `O=C(CNC(=O)C(CCc1cccc[n+]1[O-])NS(=O)(=O)Cc1ccccc1)NCc1cc(Cl)ccc1Cl` (stereo not given), the Ki on Coagulation factor X was 2.55 nM; in [1] it was greater than 5 µM; in data set [2] it was greater than 5 µM; on Trypsin it was greater than 0.5 µM; on Prothrombin it was 7.6 µM.
For the compound `COC(=O)C(=O)N[C@H](CCc1cccc[n+]1[O-])C(=O)N1CCC[C@H]1C(=O)NCc1cc(Cl)ccc1CN`, the figures for the IC200 (with Plasma [3]; in [4]; in the data set on Plasma [5]) were 0.13 µM, 0.3 µM and 0.79 µM, respectively. Moreover, the Ki at Coagulation factor X is 0.63 nM; in data set [1], greater than 5 µM; in data set [2], greater than 5 µM; at Trypsin it was greater than 0.5 µM; on Prothrombin it was 0.0177 µM.
`COC(=O)Cc1ccc(CS(=O)(=O)NC(CCc2cccc[n+]2[O-])C(=O)NCC(=O)NCc2cc(Cl)ccc2CN)cc1` (stereo not given): the Ki was greater than 5 µM in [1], greater than 5 µM in data set [2], greater than 0.5 µM on Trypsin and 1.01 µM at Prothrombin.

The record behind these values is ChEMBL document CHEMBL1145355, “From selective substrate analogue factor Xa inhibitors to dual inhibitors of thrombin and factor Xa. Part 3” (Bioorg Med Chem Lett, 2007).
